# Structures can show the parent of a compound that is named as a salt.
# Experiments:
# Format in all cases: cell-based
# [1] = system: IL-6; experiment: hPBMCs assay, LPS-induced IL-6; conditions: Homo sapiens, LPS 1 μg/ml, 5 hours, ELISA
# Procedure: (§1) TNF-α production by lipopolysaccharides (LPS) in hPBMCs was measured according to the method described in literature (Physiol. Res., 2003, 52, 593-598). Blood was collected from healthy donors into Potassium EDTA vacutainer tubes (BD vacutainer). The PBMCs were isolated using gradient centrifugation in Histopaque-1077 solution (Sigma). Isolated PBMC were suspended in RPMI 1640 culture medium (Sigma-Aldrich Fine Chemicals, USA), containing 10% fetal bovine serum (FBS) (JRH, USA), 100 U/ml penicillin (Sigma Chemical Co. St Louis, Mo.) and 100 μg/ml streptomycin (Sigma Chemical Co. St Louis, Mo.). The cell concentration was adjusted to 1×10^6 cells/ml. The viability as determined by trypan blue dye exclusion was uniformly ≧98%. The cell suspension (100 μl) was added to the wells of a 96-well culture plate. Following cell plating, 79 μl of the culture medium and 1 μl of eight different concentrations of the test compounds (final concentration 0.03, 0.1, 0.3, 1, 3, 10, 30, 100 μg/ml) dissolved in DMSO were added to the cells. The final concentration of DMSO was adjusted to 0.5%. The vehicle (0.5 DMSO) was used as control. Rolipram (300 μM) was used as a standard compound. The plates were incubated for 30 minutes at 37° C. in an atmosphere of 5% CO2. Finally, 20 μl (10 μg/ml) per well of LPS, (Escherchia coli 0127:B8, Sigma Chemical Co., St. Louis, Mo.) was added, for a final concentration of 1 µg/ml. The plates were incubated at 37° C. for 5 hours in an atmosphere of 5% CO2. To assess the cytotoxic effect of the test compounds, the cellular viability test was performed using MTS (3-(4,5-dimethylthiazol-2-yl)-5-(3-carboxymethoxyphenyl)-2-(4-sulfonyl)-2H-tetrazolium) reagent after 5 hours of incubation. Supernatants were harvested and assayed for TNF-α, interleukin-1β (IL-1β), interleukin-6 (IL-6) and interleukin-8 (IL-8) by ELISA as described by the manufacturer. (OptiEIA ELISA sets, BD Biosciences, Pharmingen). […]
# [2] = system: TNF-α; experiment: hPBMCs assay, LPS-induced TNF-α; conditions: Homo sapiens, LPS 1 μg/ml, 5 hours, ELISA
# Procedure: as §1
# [3] = system: TNF-α; experiment: Whole blood cell culture assay, LPS-induced TNF-α release; conditions: Homo sapiens, at a concentration of 10 μM, LPS 1 μg/ml, 4.5 hours
# Procedure: TNF-α production by lipopolysaccharide (LPS) in whole blood was measured according to the method described in literature (J. Immunol. Methods, 1991, 139, 233-240).
# Blood was collected from healthy donors into potassium EDTA vacutainer tubes (Becton Dickinson) and diluted with RPMI (Roswell Park Memorial Institute) 1640 culture medium (Gibco BRL, Pasley, UK) containing 100 U/ml penicillin and 100 μg/ml streptomycin, (100× solution, Sigma Chemical Co. St Louis, Mo.) with no added serum. The white blood cell count was adjusted to 1×10^6 cells/ml and 100 it/well of the diluted blood was transferred into 96-well culture plates. Following cell plating, 79 μl of culture medium and 1 μl of the test compounds (final concentration 1 μM and 10 μM) dissolved in DMSO was added to the cells. The final concentration of DMSO was adjusted to 0.5%. 1 μl of vehicle (0.5% DMSO) was used as control. Rolipram (300 μM) was used as a standard compound. The plates were incubated for 30 minutes at 37° C. in an atmosphere of 5% CO2. Finally, 20 μl (10 μg/ml) per well of LPS (Escherchia coli 0127:B8, Sigma Chemical Co. St. Louis, Mo.) was added, for a final concentration of 1 μg/ml. Plates were incubated at 37° C. for 4.5 hours in an atmosphere of 5% CO2. Supernatants were harvested and assayed for TNF-α by ELISA as described by the manufacturer (OptiEIA ELISA sets, BD Biosciences, Pharmingen). Percent inhibition of TNF-α release in comparison to the control was calculated.
# [4] = system: IL-1β; experiment: hPBMCs assay, LPS-induced IL-1β; conditions: Homo sapiens, LPS 1 μg/ml, 5 hours, ELISA
# Procedure: as §1
# [5] = system: IL-8; experiment: hPBMCs assay, LPS-induced IL-8; conditions: Homo sapiens, LPS 1 μg/ml, 5 hours, ELISA
# Procedure: as §1
IC50 [1] [nM],IC50 [2] [nM],IC50 [4] [nM],IC50 [5] [nM],Compound,inhibition at 10 µM [3] [%]
4900,900,800,6500,"COc1cc(OC)c(C2CCN(C)C2CO)c(O)c1C(=O)C=Cc1ccccc1Cl (racemic) [Example 20, (+/−)3-(2-Chlorophenyl)-1-(2-hydroxy-3-(2-(hydroxymethyl)-1-methylpyrrolidin-3-yl)-4,6-dimethoxy-phenyl)prop-2-en-1-one hydrochloride]",66
2300,800,200,5200,"COc1cc(OC)c(C2CCN(C)C2CO)c(O)c1C(=O)C=Cc1cccc(Br)c1 (racemic) [Example 21, (+/−)3-(3-Bromophenyl)-1-(2-hydroxy-3-(2-(hydroxymethyl)-1-methylpyrrolidin-3-yl)-4,6-dimethoxy-phenyl)prop-2-en-1-one]",61
–,–,–,–,"COc1cc(OC)c(C2CCN(C)C2CO)c(O)c1C(=O)C=Cc1cccc(C)c1 (racemic) [Example 23, (+/−)1-(2-Hydroxy-3-(2-(hydroxymethyl)-1-methylpyrrolidin-3-yl)-4,6-dimethoxy-phenyl)-3-m-tolylprop-2-en-1-one]",32
2500,500,100,5400,"COc1cc(OC)c(C2CCN(C)C2CO)c(O)c1C(=O)C=Cc1cccc([N+](=O)[O-])c1 (racemic) [Example 25, (+/−)1-(2-Hydroxy-3-(2-(hydroxymethyl)-1-methylpyrrolidin-3-yl)-4,6-dimethoxy-phenyl)-3-(3-nitrophenyl)prop-2-en-1-one]",68
–,–,–,–,"COc1cc(OC)c(C2CCN(C)C2CO)c(O)c1C(=O)C=Cc1ccc(Cl)cc1 (racemic) [Example 28, (+/−)3-(4-Chlorophenyl)-1-(2-hydroxy-3-(2-(hydroxymethyl)-1-methylpyrrolidin-3-yl)-4,6-dimethoxy-phenyl)prop-2-en-1-one]",30
–,–,–,–,"COc1cc(OC)c(C2CCN(C)C2CO)c(O)c1C(=O)C=Cc1ccc(F)cc1 (racemic) [Example 29, (+/−)3-(4-Fluorophenyl)-1-(2-hydroxy-3-(2-(hydroxymethyl)-1-methylpyrrolidin-3-yl)-4,6-dimethoxy-phenyl)prop-2-en-1-one]",31
–,–,–,–,"COc1cc(OC)c(C2CN(C)C(=O)C2CO)c(O)c1C(=O)C=Cc1ccccc1Cl (racemic) [Example 39, (+/−)4-(3-(3-(2-Chlorophenyl)acryloyl)-2-hydroxy-4,6-dimethoxy-phenyl)-3-(hydroxymethyl)-1-methylpyrrolidin-2-one]",75
–,–,–,–,"COc1cc(OC)c(C2CCN(C)C2CO)c(O)c1C(=O)C=Cc1ccc(C)o1 (racemic) [Example 45, (+/−)1-(2-Hydroxy-3-(2-(hydroxymethyl)-1-methylpyrrolidin-3-yl)-4,6-dimethoxy-phenyl)-3-(5-methylfuran-2-yl)prop-2-en-1-one]",54
–,–,–,–,"COc1cc(OC)c(C2CCN(C)C2CO)c(O)c1C(=O)C=Cc1cccnc1 (racemic) [Example 48, (+/−)1-(2-Hydroxy-3-(2-(hydroxymethyl)-1-methylpyrrolidin-3-yl)-4,6-dimethoxy-phenyl)-3-(pyridin-3-yl)prop-2-en-1-one]",61

# Reference: US20130203815A1, “CYTOKINE INHIBITORS” (PIRAMAL ENTERPRISES LIMITED, priority 2010, published 2013)
